Tests used:
[1] = system: normal NK cells expanded with K562-aAPC; assay: percent inhibition of viability; higher = more inhibition; conditions: 72 h, IL-2 2.5 ng/mL
Protocol: (§1)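 Drug sensitivity and resistance testing on K562-aAPC-expanded normal NK cells: 5 concentrations (10-fold steps over a 10,000-fold range), 72 h at 37 °C, viability by CellTiter-Glo normalised to DMSO and benzethonium chloride controls; DSS from the fitted curve.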

[2] = system: DERL-7 (IL-2 2.5 ng/mL); assay: as above; conditions: 72 h
[3] = system: IMC-1 (IL-2 20 ng/mL); assay: as above; conditions: 72 h
[4] = system: KAI3 (IL-2 2.5 ng/mL); assay: as above; conditions: 72 h
[5] = system: KHYG-1 (IL-2 2.5 ng/mL); assay: as above; conditions: 72 h
[6] = system: NK-92 (IL-2 2.5 ng/mL); assay: as above; conditions: 72 h
[7] = system: NK-YS (IL-2 2.5 ng/mL); assay: as above; conditions: 72 h
[8] = system: NKL (IL-2 2.5 ng/mL); assay: as above; conditions: 72 h
[9] = system: SNK-6 (IL-2 2.5 ng/mL); assay: as above; conditions: 72 h
[10] = system: YT (IL-2 2.5 ng/mL); assay: as above; conditions: 72 h
[11] = system: normal primary NK cells, pool 1 (3 donors) (IL-2 2.5 ng/mL); assay: as above; conditions: 72 h
[12] = system: normal primary NK cells, pool 1 (3 donors), resting (IL-2 0 ng/mL); assay: as above; conditions: 72 h
[13] = system: normal primary NK cells, pool 2 (3 donors) (IL-2 2.5 ng/mL); assay: as above; conditions: 72 h
[14] = system: normal primary NK cells, pool 3 (3 donors) (IL-2 2.5 ng/mL); assay: as above; conditions: 72 h
[15] = system: normal NK cells expanded with K562-aAPC; assay: drug sensitivity score (DSS) (DSS units); higher = more sensitive; extreme values may be limits of the assay; conditions: 72 h; IL-2 2.5 ng/mL
Protocol: as §1

[16] = system: DERL-7 (IL-2 2.5 ng/mL); assay: as above; conditions: 72 h
[17] = system: IMC-1 (IL-2 20 ng/mL); assay: as above; conditions: 72 h
[18] = system: KAI3 (IL-2 2.5 ng/mL); assay: as above; conditions: 72 h
[19] = system: KHYG-1 (IL-2 2.5 ng/mL); assay: as above; conditions: 72 h
[20] = system: NK-92 (IL-2 2.5 ng/mL); assay: as above; conditions: 72 h
[21] = system: NK-YS (IL-2 2.5 ng/mL); assay: as above; conditions: 72 h
[22] = system: NKL (IL-2 2.5 ng/mL); assay: as above; conditions: 72 h
[23] = system: SNK-6 (IL-2 2.5 ng/mL); assay: as above; conditions: 72 h
[24] = system: YT (IL-2 2.5 ng/mL); assay: as above; conditions: 72 h
[25] = system: normal primary NK cells, pool 1 (3 donors) (IL-2 2.5 ng/mL); assay: as above; conditions: 72 h
[26] = system: normal primary NK cells, pool 1 (3 donors), resting (IL-2 0 ng/mL); assay: as above; conditions: 72 h
[27] = system: normal primary NK cells, pool 2 (3 donors) (IL-2 2.5 ng/mL); assay: as above; conditions: 72 h
[28] = system: normal primary NK cells, pool 3 (3 donors) (IL-2 2.5 ng/mL); assay: as above; conditions: 72 h

CCC(C)n1ncn(-c2ccc(N3CCN(c4ccc(OCC5COC(Cn6cncn6)(c6ccc(Cl)cc6Cl)O5)cc4)CC3)cc2)c1=O (stereo not given) [Itraconazole] (max concentration tested 5000 nM)
percent inhibition of viability [%]
Conditions | 0.5 nM | 5 nM | 50 nM | 500 nM | 5000 nM
[1] | -0.18 | -0.93 | 0.65 | 2.54 | 33
[2] | 7.65 | 4.19 | -0.11 | 8.64 | 83.6
[3] | -1.82 | -3.66 | -2.37 | 9.1 | 29.4
[4] | 6.2 | -4.32 | -3.2 | 12.8 | 91.9
[5] | -2.72 | 3.74 | 1.39 | 6.98 | 98.1
[6] | -7.29 | -11.1 | -8.89 | 38.2 | 91.5
[7] | 3.15 | -1.22 | -1.67 | 8.46 | 68.9
[8] | 6.31 | -2.93 | -3.73 | -6.13 | 84.8
[9] | -8.18 | 3.54 | 19.4 | 39.2 | 93.4
[10] | -3.86 | -5.55 | -5.66 | 0.63 | 45.8
[11] | -10.8 | -2.66 | -5.12 | 4.85 | 30.5
[12] | -22.8 | -11.8 | -19.2 | -4.28 | 28.1
[13] | 0.8 | -6.34 | 8.01 | 14.5 | 25.8
[14] | -9.47 | -2.98 | -1.54 | 12.1 | 22.5

Conditions | drug sensitivity score
[15] | 1.9
[16] | 6.05
[17] | 2.54
[18] | 7.24
[19] | 6.51
[20] | 10.1
[21] | 5.2
[22] | 4.25
[23] | 10.3
[24] | 2.44
[25] | 2.13
[26] | 0.93
[27] | 2.45
[28] | 2.08

O=C(Cc1ccc(-c2ccc(OCCN3CCOCC3)cc2)cn1)NCc1ccccc1 [KX2-391] (max concentration tested 10000 nM)
percent inhibition of viability [%]
Conditions | 1 nM | 10 nM | 100 nM | 1000 nM | 10000 nM
[1] | -2.89 | -0.99 | 57 | 55.9 | 57.5
[2] | -1.42 | 5.02 | 99.3 | 99.9 | 98.9
[3] | -2.07 | -3.69 | 99.1 | 100 | 100
[4] | -3.67 | 25.5 | 55.4 | 76.7 | 70.3
[5] | -5.79 | 3.13 | 98.5 | 107 | 98.1
[6] | 2.97 | 44 | 92.2 | 104 | 96.8
[7] | -1.95 | 18.5 | 69.3 | 80.8 | 81.6
[8] | -12.7 | 5.97 | 94.5 | 96.4 | 89
[9] | 27.9 | 54 | 79.7 | 91.6 | 95.2
[10] | -2.25 | 14.7 | 95.6 | 102 | 95.2
[11] | -14.5 | -16.4 | 1.64 | 8.22 | 36.6
[12] | -13.2 | -19.8 | 7.03 | 7.66 | 29.1
[13] | -6.2 | -11.1 | -5.76 | 6.08 | 22.6
[14] | -15.5 | -9.53 | -0.96 | 0.59 | 6.59

Conditions | drug sensitivity score
[15] | 17.9
[16] | 31.1
[17] | 30
[18] | 23
[19] | 30.7
[20] | 34.8
[21] | 25.4
[22] | 30.1
[23] | 34.7
[24] | 32
[25] | 3.06
[26] | 2.04
[27] | 1.59
[28] | 0

Oc1ccc2c(c1)CC[C@H](c1ccccc1)[C@@H]2c1ccc(OCCN2CCCC2)cc1 [Lasofoxifene] (max concentration tested 1000 nM)
percent inhibition of viability [%]
Conditions | 0.1 nM | 1 nM | 10 nM | 100 nM | 1000 nM
[1] | -6.28 | -2.87 | -0.97 | 5.89 | 14.2
[2] | -2.25 | -2.91 | -6 | -9.21 | 0.79
[3] | 0.35 | 0.07 | 4.03 | 6.29 | 19.9
[4] | -1.79 | -1.38 | 0 | -0.11 | 15.5
[5] | -2.09 | -2.31 | 1.74 | 5.02 | 8.46
[6] | 6.27 | 1.85 | 5.66 | -5.53 | 1.52
[7] | 1.84 | -2.69 | 2.36 | -0.77 | 10.5
[8] | -11.5 | -1.59 | -8.69 | -4.01 | -9.81
[9] | 4.04 | 34.2 | 14.3 | 17.7 | -1.3
[10] | 2.75 | 2.01 | 2.57 | -4.31 | 1.17
[11] | -0.49 | -5.39 | 5.47 | -10.7 | 0.81
[12] | 7.2 | -0.67 | 3.19 | -7 | 6.03
[13] | -15.6 | -6.78 | -5.24 | -11.7 | -1.2
[14] | -15.8 | -8.59 | -8.05 | -11 | -1.01

Conditions | drug sensitivity score
[15] | 0.59
[16] | 0
[17] | 0.95
[18] | 0.26
[19] | 0
[20] | 0
[21] | 0
[22] | 0
[23] | 0
[24] | 0
[25] | 0
[26] | 0
[27] | 0
[28] | 0

N#Cc1ccc(C(c2ccc(C#N)cc2)n2cncn2)cc1 [Letrozole] (max concentration tested 10000 nM)
percent inhibition of viability [%]
Conditions | 1 nM | 10 nM | 100 nM | 1000 nM | 10000 nM
[1] | -3.92 | -7.21 | -4.76 | 2.21 | 7.69
[2] | 3.92 | -4.41 | 0.76 | -20.5 | -8.07
[3] | -2.09 | -2.27 | -1.74 | 2.28 | 8.91
[4] | -6.48 | -8.29 | 2.19 | 2.56 | 14.1
[5] | -7.78 | -5.69 | -3.04 | -1.07 | 5.03
[6] | -10.2 | -8 | -6.61 | -5.03 | 17.5
[7] | -8.7 | -6.85 | -4.19 | 1.26 | 9.67
[8] | -6.26 | -9.07 | 3.52 | 11.2 | 10.6
[9] | 14.2 | -31.4 | -25.2 | -23.6 | -28.2
[10] | 0.65 | -5.8 | 1.61 | -1.29 | 30.5
[11] | -10.5 | 0.24 | 0.58 | 3.66 | 5.55
[12] | -3.46 | 12.2 | 4.99 | 1.86 | 7.77
[13] | -3.07 | -5.44 | 6.01 | 0.12 | -0.44
[14] | 2.09 | -1.11 | 10.7 | -4.55 | -7.8

Conditions | drug sensitivity score
[15] | 0
[16] | 0
[17] | 0
[18] | 0.38
[19] | 0
[20] | 0.25
[21] | 0
[22] | 0.42
[23] | 0
[24] | 1.23
[25] | 0
[26] | 0
[27] | 0
[28] | 0

Cc1ccc(F)c(NC(=O)Nc2ccc(-c3cccc4[nH]nc(N)c34)cc2)c1 [Linifanib] (max concentration tested 1000 nM)
percent inhibition of viability [%]
Conditions | 0.1 nM | 1 nM | 10 nM | 100 nM | 1000 nM
[1] | -6.15 | -1.69 | -7.22 | -1.27 | 8.03
[2] | -3.48 | 1.81 | 3.09 | 2.4 | -1.99
[3] | -6.64 | -7.44 | -3.21 | -3.37 | 1.06
[4] | -0.03 | -0.25 | -3.05 | 7.49 | 15.8
[5] | -6.67 | -7.43 | -4.03 | -0.13 | 5.26
[6] | -24.1 | -23.8 | -13.7 | -0.86 | 25.2
[7] | -6.27 | -8.05 | -4.24 | 4.76 | 5.97
[8] | -6.64 | -0.61 | 0.44 | 14.6 | 17.6
[9] | -2.9 | 19.3 | 2.79 | -3.57 | -1.81
[10] | -5.45 | -5.75 | -1.04 | 3.95 | 7.04
[11] | -6.2 | 0.66 | 14.2 | 7.19 | 6.85
[12] | -0.38 | 0.34 | 17.6 | 14.6 | 9.36
[13] | -14 | -8.34 | -3.37 | 7.22 | 4.22
[14] | -14.8 | -8.58 | 1.59 | 7.84 | 2.88

Conditions | drug sensitivity score
[15] | 0
[16] | 0
[17] | 0
[18] | 0.91
[19] | 0
[20] | 0.9
[21] | 0
[22] | 1.69
[23] | 0
[24] | 0
[25] | 0.05
[26] | 3.83
[27] | 0
[28] | 0

Reference: the supplement of paper PMC5908809
